As usually defined, the EC50 is the midpoint of the concentration-response curve.

The record followed here is patent publication US11040026B2, “Muscarinic M1 receptor positive allosteric modulators” (SUVEN LIFE SCIENCES LIMITED, priority 2016, dated 2021).

Molecules are shown by their SMILES. Structures can show the parent of a compound that is named as a salt.

For the experiment, the target named is T1, muscarinic M1 receptor (Homo sapiens, UniProt P11229).
T1 sequence (P11229 1-460): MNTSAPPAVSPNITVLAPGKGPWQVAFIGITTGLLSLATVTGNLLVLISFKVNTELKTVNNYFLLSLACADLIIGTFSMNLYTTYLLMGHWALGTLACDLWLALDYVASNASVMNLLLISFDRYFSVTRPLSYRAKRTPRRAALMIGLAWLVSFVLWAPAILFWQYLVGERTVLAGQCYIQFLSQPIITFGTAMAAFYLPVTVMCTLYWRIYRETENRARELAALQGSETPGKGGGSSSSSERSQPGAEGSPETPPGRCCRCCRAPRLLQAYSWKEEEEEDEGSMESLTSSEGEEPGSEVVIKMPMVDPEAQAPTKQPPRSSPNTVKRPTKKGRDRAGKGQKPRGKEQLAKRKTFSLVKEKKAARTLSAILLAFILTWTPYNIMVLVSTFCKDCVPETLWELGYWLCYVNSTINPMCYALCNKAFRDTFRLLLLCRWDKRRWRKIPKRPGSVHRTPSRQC
The experiment is described as follows: Allosteric potency EC50 for muscarinic M1 receptor (CHO pCRE-Luc reporter assay). As to conditions: in presence of EC20 of acetylcholine; CHO cells, luciferase reporter, 4 hours. Type of experiment: cell-based. The procedure: Determination of Allosteric Potency EC50 Values for Muscarinic M1 Receptor:
A stable CHO cell line expressing recombinant human Muscarinic M1 receptor and pCRE-Luc reporter system was used for cell-based assay. The assay offers a non-radioactive based approach to determine binding of a compound to GPCRs. In this specific assay, the level of intracellular cyclic AMP which is modulated by activation or inhibition of the receptor is measured. The recombinant cells harbor luciferase reporter gene under the control of cyclic AMP response element.
The above cells were grown in 96 well clear bottom white plates in Hams F12 medium containing 10% fetal bovine serum (FBS). Prior to the addition of compounds or standard agonist, cells were serum starved overnight. Increasing concentrations of test compounds were added along with EC20 of acetylcholine in OptiMEM medium to the cells. The incubation was continued at 37° C. in CO2 incubator for 4 hours. Medium was removed and cells were washed with phosphate buffered saline. The cells were lysed and luciferase activity was measured in a Luminometer. Luminescence units were plotted against the compound concentrations using Graphpad software. EC50 values of the compounds were defined as the concentration required in stimulating the luciferase activity by 50% in presence of EC20 of acetylcholine and the results are provided in table 1.
(Reporter assays use an easily measured gene product as a stand-in for the process of interest.)
`Cn1ccc2c(Cc3cccnc3)cc(C(=O)N[C@H]3CCCC[C@@H]3O)nc21` [Example 27, N-[(1S,2S)-2-Hydroxycyclohexyl]-4-(pyridin-3-ylmethyl)-1-methyl-1H-pyrrolo[2,3-b]pyridine-6-carboxamide]: the EC50 came out at 234 nM. In the case of `CN1CCc2c(Cc3ccc(Cl)nc3)cc(C(=O)N[C@H]3CCCC[C@@H]3O)nc21` [Example 72, N-[(1S,2S)-2-Hydroxycyclohexyl]-4-(2-chloropyridin-5-ylmethyl)-1-methyl-2,3-dihydro-1H-pyrrolo[2,3-b]pyridine-6-carboxamide] it was 494 nM. Then `COc1ccc(Cc2cc(C(=O)N[C@@H]3CCOC[C@H]3O)nc3c2ccn3C)cc1` (single isomer, unassigned; isomer-ii) [Example 61, trans-N-(3-Hydroxytetrahydropyran-4-yl)-4-(4-methoxybenzyl)-1-methyl-1H-pyrrolo[2,3-b]pyridine-6-carboxamide (Isomer-II)], with 222 nM; and `Cn1ccc2c(Cc3ccc(-c4cscn4)cc3)cc(C(=O)NCC(C)(C)O)nc21` [Example 24, N-(2-Hydroxy-2-methylpropyl)-4-[4-(thiazol-4-yl)benzyl]-1-methyl-1H-pyrrol[2,3-b]pyridine-6-carboxamide], with 834 nM; and `Cn1ccc2c(Cc3ccc(F)cc3)cc(C(=O)N[C@H]3CCOC[C@H]3O)nc21` (single isomer, unassigned; isomer-ii) [Example 37, cis-N-(3-Hydroxytetrahydropyran-4-yl)-4-(4-fluorobenzyl)-1-methyl-1H-pyrrolo[2,3-b]pyridine-6-carboxamide (Isomer-II)], with 1250 nM.

As to `O=C(N[C@@H]1CCOC[C@H]1O)c1cc(Cc2ccc(F)cc2)c2c(n1)OCCO2` (single isomer, unassigned) [Example 113, trans-N-(3-Hydroxytetrahydropyran-4-yl)-8-(4-fluorobenzyl)-2,3-dihydro-[1,4]dioxino[2,3-b]pyridine-6-carboxamide (Isomer-IT)], the EC50 was 136 nM.

Take `O=C(N[C@@H]1CCOC[C@H]1O)c1cc(Cc2ccc(-c3cscn3)cc2)c2c(n1)CNCC2` (single isomer, unassigned; isomer-ii) [Example 97, trans-N-(3-Hydroxytetrahydropyran-4-yl)-4-[4-(thiazol-4-yl)benzyl]-5,6,7,8-tetrahydro[1,7]naphthyridine-2-carboxamide Hydrochloride (Isomer-II)]: the EC50 was found to be 6 nM. In the case of `Cn1cc(-c2ccc(Cc3cc(C(=O)N[C@H]4CCCC[C@@H]4O)nc4c3ccn4C)cc2)cn1` [Example 7, N-[(1S,2S)-2-Hydroxycyclohexyl]-4-[4-(1-methyl-1H-pyrazol-4-yl)benzyl]-1-methyl-1H-pyrrolo[2,3-b]pyridine-6-carboxamide] it was 8 nM. Take `Cn1cc(-c2ccc(Cc3cc(C(=O)N[C@H]4CCCC[C@@H]4O)nc4c3ccn4C)c(F)c2)cn1` [Example 8, N-[(1S,2S)-2-Hydroxycyclohexyl]-4-[2-fluoro-4-(1-methyl-1H-pyrazol-4-yl)benzyl]-1-methyl-1H-pyrrolo[2,3-b]pyridine-6-carboxamide]: the concentration for a half-maximal effect (EC50) is 17 nM. For the compound `O=C(N[C@H]1CCCC[C@@H]1O)c1cc(Cc2ccc(Cl)nc2)c2ccn(CCF)c2n1` [Example 23, N-[(1S,2S)-2-Hydroxycyclohexyl]-4-(2-chloropyridin-5-ylmethyl)-1-(2-fluoroethyl)-1H-pyrrolo[2,3-b]pyridine-6-carboxamide], the concentration for a half-maximal effect (EC50) was determined as 727 nM.

As for `Cn1ccc2c(Cc3ccc(F)c(F)c3)cc(C(=O)N[C@H]3CCOC[C@H]3O)nc21` (single isomer, unassigned; isomer-i) [Example 41, cis-N-(3-Hydroxytetrahydropyran-4-yl)-4-(3,4-difluorobenzyl)-1-methyl-1H-pyrrolo[2,3-b]pyridine-6-carboxamide (Isomer-I)], the EC50 came to 1230 nM.
